Data on 2 compounds can be found in PMC8044178, “Structural basis of norepinephrine recognition and transport inhibition in neurotransmitter transporters” (Nature Communications, 2021).

Values joined by “and” are separate entries in the source; they are usually repeats but may differ in a detail not shown here. Equal values may be shown once.

Assay [1] relates to dDAT D121G/S426M. The following applies: cited from earlier work.
In assay [2] the target is T1, dDATNET (Drosophila melanogaster, UniProt Q7K4Y6, D121G/DEL162-202/F471L/L415A/S426M/V74A).
T1 construct: GFP-8x-His (C); made in house; host or cells: HEK293S GnTI- cells, BacMam baculovirus transduction
The assay can be described thus: [3H] nisoxetine binding, scintillation proximity assay, purified dDATNET. As to conditions: for Specific CPM/p.mole protein: DAT_NET, single replicates. How it is done:
(§1) Binding assays were performed with 20 nM of purified dDAT protein by scintillation proximity assay. For determining nisoxetine Kd, [^3H] Nisoxetine (Perkin Elmer) (in 1:5 molar ratio) was used in the range of 0.1 nM to 500 nM with 100 µM desipramine added to the control samples. Competition assays were done with 50 nM [^3H] […] The assays were done in 1 mM DDM, 0.2 mM CHS, 20 mM Tris-Cl (pH 8), 300 mM NaCl and 5% glycerol. The background values were subtracted to plot the final curves in GraphPad prism v5.0.1 and the Kd values were calculated. The IC50 values obtained from binding competition assays were used to deduce the Ki values by Cheng–Prusoff’s equation.

In assay [3] the target is hNET. The following applies: read-out: nisoxetine-binding affinity Kd; cited from earlier work.
Assay [4] deals with T2, dDATmfc (Drosophila melanogaster, UniProt Q7K4Y6, DEL162-202/F471L/L415A/V74A).
T2 construct: GFP-8x-His (C); made in house; host or cells: HEK293S GnTI- cells, BacMam baculovirus transduction
Description: [3H] nisoxetine binding, scintillation proximity assay, purified dDATmfc. As to conditions: for Specific CPM/p.mole protein: DATmfc, single replicates. How it is done: as §1
A general note: In a scintillation proximity assay essentially only radioactivity close to the scintillant gives light.

The target of assay [5] is WT dDAT. As to conditions: read-out: nisoxetine-binding affinity Kd; cited from earlier work.

Regarding `COC(=O)[C@H]1[C@@H](OC(=O)c2ccccc2)C[C@@H]2CC[C@H]1N2C` [cocaine], in assay [1], the “increment in ability to compete for nisoxetine / affinity with hNET-like mutations D121G and S426M in subsite B” value is listed as 10 fold.
On to `CNCCC(Oc1ccccc1OC)c1ccccc1` (stereo not drawn) [nisoxetine], for which the “Specific CPM/p.mole protein” value in assay [2] (Nisox 0.1 nM) is 20 CPM/p.mole protein; in assay [2] (Nisox 100 nM) it was 565 CPM/p.mole protein and 636 CPM/p.mole protein and 590 CPM/p.mole protein and 524 CPM/p.mole protein and 548 CPM/p.mole protein and 546 CPM/p.mole protein and 490 CPM/p.mole protein and 531 CPM/p.mole protein and 494 CPM/p.mole protein; in assay [2] (Nisox 300 nM) it was 687 CPM/p.mole protein and 533 CPM/p.mole protein (2×) and 630 CPM/p.mole protein and 583 CPM/p.mole protein and 563 CPM/p.mole protein and 581 CPM/p.mole protein and 730 CPM/p.mole protein and 516 CPM/p.mole protein; in assay [2] (Nisox 500 nM) it was 735 CPM/p.mole protein and 683 CPM/p.mole protein and 709 CPM/p.mole protein and 618 CPM/p.mole protein and 586 CPM/p.mole protein and 593 CPM/p.mole protein and 630 CPM/p.mole protein and 670 CPM/p.mole protein and 642 CPM/p.mole protein; in assay [4] (Nisox 0.1 nM), 7 CPM/p.mole protein and 10 CPM/p.mole protein and 3 CPM/p.mole protein and 24 CPM/p.mole protein and 15 CPM/p.mole protein (2×) and 14 CPM/p.mole protein and 9 CPM/p.mole protein and 6 CPM/p.mole protein; in assay [4] (Nisox 1 nM), 126 CPM/p.mole protein and 128 CPM/p.mole protein and 141 CPM/p.mole protein and 114 CPM/p.mole protein and 102 CPM/p.mole protein and 95 CPM/p.mole protein and 97 CPM/p.mole protein and 78 CPM/p.mole protein and 120 CPM/p.mole protein. Also, the “Specific CPM/p.mole protein” value is 292 CPM/p.mole protein and 269 CPM/p.mole protein and 300 CPM/p.mole protein and 210 CPM/p.mole protein and 245 CPM/p.mole protein and 211 CPM/p.mole protein and 113 CPM/p.mole protein and 184 CPM/p.mole protein and 198 CPM/p.mole protein in assay [4] (Nisox 3 nM); 455 CPM/p.mole protein (2×) and 499 CPM/p.mole protein and 413 CPM/p.mole protein (2×) and 477 CPM/p.mole protein and 371 CPM/p.mole protein (2×) and 397 CPM/p.mole protein in assay [4] (Nisox 10 nM); 491 CPM/p.mole protein and 537 CPM/p.mole protein and 503 CPM/p.mole protein and 506 CPM/p.mole protein and 442 CPM/p.mole protein (2×) and 439 CPM/p.mole protein and 427 CPM/p.mole protein and 408 CPM/p.mole protein in assay [4] (Nisox 30 nM); 566 CPM/p.mole protein and 545 CPM/p.mole protein and 533 CPM/p.mole protein and 507 CPM/p.mole protein and 558 CPM/p.mole protein and 473 CPM/p.mole protein and 465 CPM/p.mole protein and 441 CPM/p.mole protein and 405 CPM/p.mole protein in assay [4] (Nisox 100 nM); 627 CPM/p.mole protein and 611 CPM/p.mole protein and 570 CPM/p.mole protein and 569 CPM/p.mole protein and 527 CPM/p.mole protein and 520 CPM/p.mole protein and 528 CPM/p.mole protein and 490 CPM/p.mole protein and 436 CPM/p.mole protein in assay [4] (Nisox 300 nM); 632 CPM/p.mole protein and 609 CPM/p.mole protein and 595 CPM/p.mole protein and 628 CPM/p.mole protein and 619 CPM/p.mole protein and 565 CPM/p.mole protein and 554 CPM/p.mole protein and 465 CPM/p.mole protein and 467 CPM/p.mole protein in assay [4] (Nisox 500 nM). The Kd – broadly, the free concentration of one partner at which half of the binding sites on the other are occupied at equilibrium, for simple one-to-one binding – in assay [2] (Nisoxetine Kd, dDATNET) was 2.79 ± 0.27 nM; in assay [2] (dissociation constants (Kd) for nisoxetine, range over the dDAT constructs used in this study (dDATNET, dDATmfc)) it was 2.8 to 3.8 nM; in assay [3], 1.9 nM; in assay [4], 3.82 ± 0.39 nM; in assay [5] it was 5 nM.
